Measurements from publication PMC6321388, “Molecular Mechanism of Action of RORγt Agonists and Inverse Agonists: Insights from Molecular Dynamics Simulation” (Molecules, 2018).

Key:
[1] = target: T1, RORγt (Homo sapiens, UniProt P51449); test: FRET coactivator-peptide recruitment assay with human RORγt-LBD (inverse agonist, max. -[…]); type: binding
T1 construct: gene RORC; RORγt-LBD

[2] = target: T1, RORγt; test: FRET coactivator-peptide recruitment assay with human RORγt-LBD (agonist, max. act. […]); type: binding

T1 sequence (Q15788 2-1441): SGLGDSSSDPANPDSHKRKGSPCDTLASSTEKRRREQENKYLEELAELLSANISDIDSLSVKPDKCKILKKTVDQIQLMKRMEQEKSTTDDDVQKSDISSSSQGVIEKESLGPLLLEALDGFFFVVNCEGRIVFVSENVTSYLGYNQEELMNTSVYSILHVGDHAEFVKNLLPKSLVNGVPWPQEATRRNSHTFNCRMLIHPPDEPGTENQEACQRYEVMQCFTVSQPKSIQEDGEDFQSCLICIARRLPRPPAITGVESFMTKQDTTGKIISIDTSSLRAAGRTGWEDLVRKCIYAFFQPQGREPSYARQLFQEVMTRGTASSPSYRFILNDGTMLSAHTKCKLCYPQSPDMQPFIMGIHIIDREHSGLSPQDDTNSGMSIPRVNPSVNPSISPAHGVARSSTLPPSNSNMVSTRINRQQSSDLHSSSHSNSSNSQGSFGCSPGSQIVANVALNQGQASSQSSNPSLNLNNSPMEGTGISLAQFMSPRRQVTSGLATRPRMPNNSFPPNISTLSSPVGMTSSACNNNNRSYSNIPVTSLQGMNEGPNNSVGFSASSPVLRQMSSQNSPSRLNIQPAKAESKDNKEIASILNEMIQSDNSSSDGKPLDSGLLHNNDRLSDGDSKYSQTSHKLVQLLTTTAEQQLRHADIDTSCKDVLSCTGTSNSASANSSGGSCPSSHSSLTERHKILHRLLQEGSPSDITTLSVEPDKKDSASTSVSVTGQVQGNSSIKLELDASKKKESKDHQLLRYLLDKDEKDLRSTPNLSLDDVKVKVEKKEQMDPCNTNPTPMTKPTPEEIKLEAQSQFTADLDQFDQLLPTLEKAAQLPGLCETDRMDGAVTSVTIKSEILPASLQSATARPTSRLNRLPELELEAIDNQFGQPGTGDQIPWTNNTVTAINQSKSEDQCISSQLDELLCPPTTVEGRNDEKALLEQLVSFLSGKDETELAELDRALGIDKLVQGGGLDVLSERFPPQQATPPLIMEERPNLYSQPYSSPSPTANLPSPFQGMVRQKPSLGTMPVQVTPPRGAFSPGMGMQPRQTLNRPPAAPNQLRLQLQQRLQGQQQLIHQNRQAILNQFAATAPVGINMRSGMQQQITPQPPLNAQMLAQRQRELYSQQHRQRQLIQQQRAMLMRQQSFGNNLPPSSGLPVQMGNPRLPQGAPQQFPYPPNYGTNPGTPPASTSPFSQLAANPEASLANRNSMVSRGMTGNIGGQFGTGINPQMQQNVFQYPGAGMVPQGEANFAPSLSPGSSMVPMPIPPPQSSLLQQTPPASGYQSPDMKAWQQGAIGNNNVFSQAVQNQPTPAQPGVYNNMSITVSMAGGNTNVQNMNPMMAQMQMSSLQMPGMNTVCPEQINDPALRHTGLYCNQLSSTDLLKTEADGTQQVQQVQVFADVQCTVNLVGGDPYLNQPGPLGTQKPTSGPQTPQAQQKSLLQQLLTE
T1 sequence (P51449 265-507): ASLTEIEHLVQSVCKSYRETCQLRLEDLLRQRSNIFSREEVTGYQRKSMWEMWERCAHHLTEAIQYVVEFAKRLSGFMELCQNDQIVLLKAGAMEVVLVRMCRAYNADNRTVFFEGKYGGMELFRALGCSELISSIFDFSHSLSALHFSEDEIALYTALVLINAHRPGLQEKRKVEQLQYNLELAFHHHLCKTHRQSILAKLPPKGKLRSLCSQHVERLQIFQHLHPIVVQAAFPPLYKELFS

Row | SMILES | IC50 [1] [nM] | EC50 [2] [nM]
1 | CC(=O)N1CCN(c2ccc(N(C3CCC3)S(=O)(=O)Cc3ccccc3)cc2)CC1 [GT] | 53 | –
2 | CC(=O)N1CCN(c2ccc3c(c2)CCCN3S(=O)(=O)c2ccccc2)CC1 [compound 1, agonist 1] | – | 3700
